Assay results from the kinase profiling compilation of Christmann-Franck et al. (2016).
“And” between values parts separate entries of the source, which are not always exact repeats. Identical values can stand only once.

Assays:
Test in all cases: radiometric filter-binding kinase assay, Kinase HotSpot
Conditions in all cases: compound 0.5 µM; ATP 10 µM
INSRR (human) = INSRR (human) (UniProt P14616)
ERBB4 (human) = ERBB4 (human) (UniProt Q15303)
TAOK3 (human) = TAOK3 (human) (UniProt Q9H2K8)
PRKCD (human) = PRKCD (human) (UniProt Q05655)
CHUK (human) = CHUK (human) (UniProt O15111)
PRKCG (human) = PRKCG (human) (UniProt P05129)
EPHA1 (human) = EPHA1 (human) (UniProt P21709)
MAP2K2 (human) = MAP2K2 (human) (UniProt P36507)
MAP3K3 (human) = MAP3K3 (human) (UniProt Q99759)
NEK9 (human) = NEK9 (human) (UniProt Q8TD19)
EPHA8 (human) = EPHA8 (human) (UniProt P29322)
CAMK2B (human) = CAMK2B (human) (UniProt Q13554)
BTK (human) = BTK (human) (UniProt Q06187)
CAMK1D (human) = CAMK1D (human) (UniProt Q8IU85)
NEK4 (human) = NEK4 (human) (UniProt P51957)
GRK4 (human) = GRK4 (human) (UniProt P32298)
PRKG1 (human) = PRKG1 (human) (UniProt Q13976)
NEK7 (human) = NEK7 (human) (UniProt Q8TDX7)
GRK5 (human) = GRK5 (human) (UniProt P34947)
SRPK2 (human) = SRPK2 (human) (UniProt P78362)
NEK6 (human) = NEK6 (human) (UniProt Q9HC98)
RET (human) = RET (human) (UniProt P07949)
HIPK1 (human) = HIPK1 (human) (UniProt Q86Z02)
EPHA5 (human) = EPHA5 (human) (UniProt P54756)
SGK2 (human) = SGK2 (human) (UniProt Q9HBY8)
HCK (human) = HCK (human) (UniProt P08631)
LRRK2 (human) = LRRK2 (human) (UniProt Q5S007)
MARK2 (human) = MARK2 (human) (UniProt Q7KZI7)
DCLK2 (human) = DCLK2 (human) (UniProt Q8N568)
JAK2 JH1 JH2 (human) = JAK2 JH1 JH2 (human) (UniProt O60674)
CSNK1G1 (human) = CSNK1G1 (human) (UniProt Q9HCP0)
MAPK8 (human) = MAPK8 (human) (UniProt P45983)
ABL2 (human) = ABL2 (human) (UniProt P42684)
NEK1 (human) = NEK1 (human) (UniProt Q96PY6)
YES1 (human) = YES1 (human) (UniProt P07947)
DSTYK (human) = DSTYK (human) (UniProt Q6XUX3)
CDK4 CCND3 (human) = CDK4 CCND3 (human) (UniProt P30281+P11802)
BMX (human) = BMX (human) (UniProt P51813)
PRKD1 (human) = PRKD1 (human) (UniProt Q15139)
DYRK4 (human) = DYRK4 (human) (UniProt Q9NR20)
MAP4K5 (human) = MAP4K5 (human) (UniProt Q9Y4K4)
MAPK12 (human) = MAPK12 (human) (UniProt P53778)

EPHA5 (human), sequence (P54756 whole entry, looked up): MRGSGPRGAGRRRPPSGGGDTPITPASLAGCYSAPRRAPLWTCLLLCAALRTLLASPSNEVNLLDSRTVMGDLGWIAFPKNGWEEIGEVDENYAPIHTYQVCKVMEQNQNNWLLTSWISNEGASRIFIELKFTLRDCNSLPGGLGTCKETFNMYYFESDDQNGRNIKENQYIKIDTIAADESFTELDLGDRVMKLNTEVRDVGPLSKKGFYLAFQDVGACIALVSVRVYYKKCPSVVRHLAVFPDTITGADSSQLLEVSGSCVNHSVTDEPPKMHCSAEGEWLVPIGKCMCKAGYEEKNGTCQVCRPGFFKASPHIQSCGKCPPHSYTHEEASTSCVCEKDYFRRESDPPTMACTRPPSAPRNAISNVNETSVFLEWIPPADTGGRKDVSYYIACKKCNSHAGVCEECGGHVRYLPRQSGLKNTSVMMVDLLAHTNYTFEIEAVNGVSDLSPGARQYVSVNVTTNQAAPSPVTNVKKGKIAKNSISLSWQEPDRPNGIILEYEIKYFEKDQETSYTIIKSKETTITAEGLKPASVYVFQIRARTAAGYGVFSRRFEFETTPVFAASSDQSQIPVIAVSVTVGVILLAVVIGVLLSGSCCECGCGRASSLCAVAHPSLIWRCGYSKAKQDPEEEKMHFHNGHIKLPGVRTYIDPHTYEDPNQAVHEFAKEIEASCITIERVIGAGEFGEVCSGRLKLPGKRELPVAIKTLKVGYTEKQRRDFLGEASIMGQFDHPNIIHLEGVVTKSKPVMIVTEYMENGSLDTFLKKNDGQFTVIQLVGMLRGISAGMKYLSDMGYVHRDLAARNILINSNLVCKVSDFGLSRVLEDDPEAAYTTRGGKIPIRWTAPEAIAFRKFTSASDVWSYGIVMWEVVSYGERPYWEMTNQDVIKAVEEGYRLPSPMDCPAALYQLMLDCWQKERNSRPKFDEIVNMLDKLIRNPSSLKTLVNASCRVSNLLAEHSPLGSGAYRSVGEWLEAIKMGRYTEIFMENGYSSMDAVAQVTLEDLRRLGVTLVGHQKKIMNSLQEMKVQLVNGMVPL
CSNK1G1 (human), sequence (Q9HCP0 whole entry, looked up): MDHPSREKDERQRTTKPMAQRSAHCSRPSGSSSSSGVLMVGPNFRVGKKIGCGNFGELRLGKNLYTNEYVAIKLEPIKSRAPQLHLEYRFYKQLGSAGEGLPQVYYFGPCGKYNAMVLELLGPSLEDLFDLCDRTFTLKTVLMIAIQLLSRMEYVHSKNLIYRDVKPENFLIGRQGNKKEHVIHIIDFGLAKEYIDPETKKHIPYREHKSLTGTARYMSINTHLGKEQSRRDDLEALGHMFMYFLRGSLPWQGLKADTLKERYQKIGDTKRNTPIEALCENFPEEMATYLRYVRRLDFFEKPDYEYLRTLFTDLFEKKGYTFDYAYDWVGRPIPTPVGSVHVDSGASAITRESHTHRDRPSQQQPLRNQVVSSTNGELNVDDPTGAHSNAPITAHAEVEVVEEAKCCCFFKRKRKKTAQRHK
SRPK2 (human), sequence (P78362 whole entry, looked up): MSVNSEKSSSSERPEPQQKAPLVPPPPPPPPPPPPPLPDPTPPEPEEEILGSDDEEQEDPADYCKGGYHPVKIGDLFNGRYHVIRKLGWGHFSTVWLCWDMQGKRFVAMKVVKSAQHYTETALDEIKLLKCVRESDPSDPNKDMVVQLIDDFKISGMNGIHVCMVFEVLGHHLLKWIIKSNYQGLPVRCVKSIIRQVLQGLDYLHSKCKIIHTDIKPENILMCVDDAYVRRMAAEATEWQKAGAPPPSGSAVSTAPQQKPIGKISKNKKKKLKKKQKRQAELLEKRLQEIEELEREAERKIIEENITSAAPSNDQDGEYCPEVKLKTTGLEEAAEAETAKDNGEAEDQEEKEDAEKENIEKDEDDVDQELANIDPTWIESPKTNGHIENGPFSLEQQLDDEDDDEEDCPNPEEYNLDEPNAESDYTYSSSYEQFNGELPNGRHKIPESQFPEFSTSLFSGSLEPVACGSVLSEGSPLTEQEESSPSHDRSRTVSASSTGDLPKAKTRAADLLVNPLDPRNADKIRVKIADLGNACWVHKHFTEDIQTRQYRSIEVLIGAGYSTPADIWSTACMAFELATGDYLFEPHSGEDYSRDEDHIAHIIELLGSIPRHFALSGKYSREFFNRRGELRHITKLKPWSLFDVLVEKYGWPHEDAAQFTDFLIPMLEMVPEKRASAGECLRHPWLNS
ERBB4 (human), sequence (Q15303 whole entry, looked up): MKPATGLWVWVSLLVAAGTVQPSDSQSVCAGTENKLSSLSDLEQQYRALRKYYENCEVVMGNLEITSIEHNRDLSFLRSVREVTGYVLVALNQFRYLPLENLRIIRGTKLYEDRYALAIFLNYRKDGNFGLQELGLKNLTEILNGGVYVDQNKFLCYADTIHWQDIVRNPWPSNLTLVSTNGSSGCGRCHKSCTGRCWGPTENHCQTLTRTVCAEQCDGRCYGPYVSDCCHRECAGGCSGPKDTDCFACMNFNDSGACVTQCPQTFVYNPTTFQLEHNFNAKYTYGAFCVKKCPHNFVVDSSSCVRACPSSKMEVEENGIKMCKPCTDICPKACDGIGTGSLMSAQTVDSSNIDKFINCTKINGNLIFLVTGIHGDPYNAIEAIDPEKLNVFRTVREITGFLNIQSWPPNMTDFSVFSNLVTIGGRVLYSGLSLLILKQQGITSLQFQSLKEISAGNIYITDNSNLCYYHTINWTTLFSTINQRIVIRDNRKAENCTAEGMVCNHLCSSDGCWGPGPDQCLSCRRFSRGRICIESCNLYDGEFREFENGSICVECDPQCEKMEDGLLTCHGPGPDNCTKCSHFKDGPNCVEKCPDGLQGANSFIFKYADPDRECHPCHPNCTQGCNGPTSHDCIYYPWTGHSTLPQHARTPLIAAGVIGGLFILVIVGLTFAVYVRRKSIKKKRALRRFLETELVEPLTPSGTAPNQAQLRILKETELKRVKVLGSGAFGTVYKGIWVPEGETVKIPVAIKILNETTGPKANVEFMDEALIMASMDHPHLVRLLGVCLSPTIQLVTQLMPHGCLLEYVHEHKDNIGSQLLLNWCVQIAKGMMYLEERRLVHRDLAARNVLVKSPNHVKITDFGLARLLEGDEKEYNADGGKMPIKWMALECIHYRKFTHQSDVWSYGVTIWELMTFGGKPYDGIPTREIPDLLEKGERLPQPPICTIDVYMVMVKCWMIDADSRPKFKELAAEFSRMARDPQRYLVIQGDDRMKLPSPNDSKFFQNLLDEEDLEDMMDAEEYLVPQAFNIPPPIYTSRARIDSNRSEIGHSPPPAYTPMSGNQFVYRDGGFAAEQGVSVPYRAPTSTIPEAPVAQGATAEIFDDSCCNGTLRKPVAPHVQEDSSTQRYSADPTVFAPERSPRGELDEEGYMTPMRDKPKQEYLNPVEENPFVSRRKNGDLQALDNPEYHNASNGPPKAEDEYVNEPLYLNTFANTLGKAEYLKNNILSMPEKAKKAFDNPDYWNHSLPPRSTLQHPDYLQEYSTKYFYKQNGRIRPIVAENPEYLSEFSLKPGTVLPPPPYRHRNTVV
NEK6 (human), sequence (Q9HC98 whole entry, looked up): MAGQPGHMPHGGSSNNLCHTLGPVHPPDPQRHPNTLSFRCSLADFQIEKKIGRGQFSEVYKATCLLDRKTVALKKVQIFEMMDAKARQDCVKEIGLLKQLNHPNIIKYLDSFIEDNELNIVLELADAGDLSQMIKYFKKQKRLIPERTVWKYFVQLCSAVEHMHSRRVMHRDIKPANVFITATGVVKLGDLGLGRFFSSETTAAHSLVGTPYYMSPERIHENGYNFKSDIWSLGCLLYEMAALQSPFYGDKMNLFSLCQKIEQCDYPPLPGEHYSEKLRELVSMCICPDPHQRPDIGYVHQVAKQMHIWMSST
MAP4K5 (human), sequence (Q9Y4K4 whole entry, looked up): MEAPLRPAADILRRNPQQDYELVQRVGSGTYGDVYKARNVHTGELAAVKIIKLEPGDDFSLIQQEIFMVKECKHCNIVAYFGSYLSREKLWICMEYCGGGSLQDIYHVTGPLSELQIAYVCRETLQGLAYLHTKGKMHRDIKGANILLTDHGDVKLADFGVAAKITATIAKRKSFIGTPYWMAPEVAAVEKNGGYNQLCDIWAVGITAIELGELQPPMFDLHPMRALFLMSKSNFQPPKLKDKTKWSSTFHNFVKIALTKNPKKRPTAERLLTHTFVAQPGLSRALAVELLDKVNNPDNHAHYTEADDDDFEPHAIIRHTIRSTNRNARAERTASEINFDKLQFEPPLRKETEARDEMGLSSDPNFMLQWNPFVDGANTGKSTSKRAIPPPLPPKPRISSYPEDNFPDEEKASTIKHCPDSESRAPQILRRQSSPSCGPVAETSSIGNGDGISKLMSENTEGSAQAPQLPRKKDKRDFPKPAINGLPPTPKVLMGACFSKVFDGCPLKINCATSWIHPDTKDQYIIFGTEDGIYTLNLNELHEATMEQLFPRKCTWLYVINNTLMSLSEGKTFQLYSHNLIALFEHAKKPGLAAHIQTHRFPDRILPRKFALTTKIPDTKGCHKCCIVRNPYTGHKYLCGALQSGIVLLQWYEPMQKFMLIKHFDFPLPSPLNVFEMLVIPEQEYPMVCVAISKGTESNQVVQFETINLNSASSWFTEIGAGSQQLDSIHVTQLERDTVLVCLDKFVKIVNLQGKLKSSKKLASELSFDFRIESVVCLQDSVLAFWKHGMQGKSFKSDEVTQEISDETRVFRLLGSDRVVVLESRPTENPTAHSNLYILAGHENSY
NEK7 (human), sequence (Q8TDX7 whole entry, looked up): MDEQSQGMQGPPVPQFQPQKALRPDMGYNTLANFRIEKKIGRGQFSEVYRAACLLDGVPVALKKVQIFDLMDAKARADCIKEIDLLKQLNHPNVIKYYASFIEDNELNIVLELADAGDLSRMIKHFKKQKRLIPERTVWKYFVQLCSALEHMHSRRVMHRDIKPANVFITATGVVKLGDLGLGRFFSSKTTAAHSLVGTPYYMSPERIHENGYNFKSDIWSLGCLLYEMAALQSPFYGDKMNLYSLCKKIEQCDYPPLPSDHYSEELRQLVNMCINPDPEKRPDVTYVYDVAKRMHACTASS

`O=C(NC(NC(=S)Nc1ccc(F)c([N+](=O)[O-])c1)C(Cl)(Cl)Cl)C(c1ccccc1)c1ccccc1` (stereo not drawn) gave a residual activity (INSRR (human)) of 93.7%, a residual activity (ERBB4 (human)) of 103% and a residual activity (TAOK3 (human)) of 121%. For the same compound, the residual activity (PRKCD (human)) was 91.2%, the residual activity (CHUK (human)) was 91.5% and the residual activity (PRKCG (human)) was 99.8%. For the same compound, the residual activity (EPHA1 (human)) was 88.1%, the residual activity (MAP2K2 (human)) was 82.3% and the residual activity (MAP3K3 (human)) was 118%. The residual activity (NEK9 (human)) was 110%, the residual activity (EPHA8 (human)) was 104% and the residual activity (CAMK2B (human)) was 104%. For the same compound, the residual activity (BTK (human)) was 104%, the residual activity (CAMK1D (human)) was 99% and the residual activity (NEK4 (human)) was 87.8%. For the same compound, the residual activity (GRK4 (human)) was 101%, the residual activity (PRKG1 (human)) was 100% and 109% and the residual activity (NEK7 (human)) was 102%. It also gave a residual activity (GRK5 (human)) of 105%, a residual activity (SRPK2 (human)) of 103% and a residual activity (NEK6 (human)) of 109%. It also gave a residual activity (RET (human)) of 103%, a residual activity (HIPK1 (human)) of 108% and a residual activity (EPHA5 (human)) of 107%. For the same compound, the residual activity (SGK2 (human)) was 119%, the residual activity (HCK (human)) was 107% and the residual activity (LRRK2 (human)) was 99.3%. For the same compound, the residual activity (MARK2 (human)) was 92.3%, the residual activity (DCLK2 (human)) was 108% and the residual activity (JAK2 JH1 JH2 (human)) was 99.9%. It also gave a residual activity (CSNK1G1 (human)) of 83.3%, a residual activity (MAPK8 (human)) of 82.1% and a residual activity (ABL2 (human)) of 105%. For the same compound, the residual activity (NEK1 (human)) was 101%, the residual activity (YES1 (human)) was 94.6% and the residual activity (DSTYK (human)) was 100%. For the same compound, the residual activity (CDK4 CCND3 (human)) was 93.7%, the residual activity (BMX (human)) was 102% and the residual activity (PRKD1 (human)) was 96.9%. For the same compound, the residual activity (DYRK4 (human)) was 104% and the residual activity (MAP4K5 (human)) was 91%.
In the case of `C#Cc1cccc(Nc2ncnc3cc(OCCOC)c(OCCOC)cc23)c1`, the residual activity (INSRR (human)) is reported as 111%, the residual activity (ERBB4 (human)) is reported as 61.4% and the residual activity (TAOK3 (human)) is reported as 106%. The residual activity (PRKCD (human)) was 104%, the residual activity (CHUK (human)) was 94.2% and the residual activity (PRKCG (human)) was 84.1%. For the same compound, the residual activity (EPHA1 (human)) was 94.5%, the residual activity (MAP2K2 (human)) was 105% and the residual activity (NEK9 (human)) was 99.5%. For the same compound, the residual activity (EPHA8 (human)) was 89.7%, the residual activity (CAMK2B (human)) was 93.1% and the residual activity (MAPK12 (human)) was 97.8%. The residual activity (CAMK1D (human)) was 98.8%, the residual activity (GRK4 (human)) was 89.6% and the residual activity (PRKG1 (human)) was 85.6% and 93.5%. The residual activity (NEK7 (human)) was 97.4%, the residual activity (GRK5 (human)) was 100% and the residual activity (SRPK2 (human)) was 101%. The residual activity (NEK6 (human)) was 89.1%, the residual activity (RET (human)) was 48.6% and the residual activity (EPHA5 (human)) was 99.1%. The residual activity (SGK2 (human)) was 107%, the residual activity (MARK2 (human)) was 129% and the residual activity (DCLK2 (human)) was 102%. The residual activity (CSNK1G1 (human)) was 104%, the residual activity (NEK1 (human)) was 73.8% and the residual activity (DSTYK (human)) was 107%. For the same compound, the residual activity (CDK4 CCND3 (human)) was 103%, the residual activity (BMX (human)) was 100% and the residual activity (PRKD1 (human)) was 94.8%. For the same compound, the residual activity (DYRK4 (human)) was 101% and the residual activity (MAP4K5 (human)) was 95.6%.
For `O=C1Cc2c([nH]c3ccc([N+](=O)[O-])cc23)-c2ccccc2N1`, the residual activity (INSRR (human)) was 94.5%, the residual activity (ERBB4 (human)) was 87.3% and the residual activity (TAOK3 (human)) was 76.7%. For the same compound, the residual activity (PRKCD (human)) was 79.8%, the residual activity (CHUK (human)) was 103% and the residual activity (PRKCG (human)) was 92.5%. It also gave a residual activity (EPHA1 (human)) of 94.8%, a residual activity (MAP2K2 (human)) of 92.5% and a residual activity (MAP3K3 (human)) of 100%. It also gave a residual activity (NEK9 (human)) of 99.3%, a residual activity (EPHA8 (human)) of 104% and a residual activity (CAMK2B (human)) of 98.1%. It also gave a residual activity (MAPK12 (human)) of 112%, a residual activity (BTK (human)) of 98.2% and a residual activity (NEK4 (human)) of 109%. The residual activity (GRK4 (human)) was 99.3%, the residual activity (PRKG1 (human)) was 94.3% and 96.8% and the residual activity (NEK7 (human)) was 89.7%. For the same compound, the residual activity (GRK5 (human)) was 107%, the residual activity (SRPK2 (human)) was 109% and the residual activity (NEK6 (human)) was 97.1%. It also gave a residual activity (RET (human)) of 81.6%, a residual activity (HIPK1 (human)) of 98.5% and a residual activity (EPHA5 (human)) of 98.6%. The residual activity (SGK2 (human)) was 111%, the residual activity (HCK (human)) was 71.8% and the residual activity (LRRK2 (human)) was 96.5%. The residual activity (MARK2 (human)) was 52.4%, the residual activity (DCLK2 (human)) was 105% and the residual activity (JAK2 JH1 JH2 (human)) was 103%. The residual activity (CSNK1G1 (human)) was 100%, the residual activity (MAPK8 (human)) was 99.6% and the residual activity (ABL2 (human)) was 54.6%. It also gave a residual activity (NEK1 (human)) of 105%, a residual activity (YES1 (human)) of 42.3% and a residual activity (DSTYK (human)) of 90%. It also gave a residual activity (BMX (human)) of 110%, a residual activity (PRKD1 (human)) of 95.6% and a residual activity (DYRK4 (human)) of 106%. The residual activity (MAP4K5 (human)) was 15.9%.
